Type in all cases: in vivo
The test system of one assay is orientation motility. The assay is described as follows: influence on orientation motility in mice (sedative action). As to conditions: Mus musculus, po, read-out: ED50 (influence on orientation motility, sedative action). The method, then:
Influence on orientation motility in mice was tested to determine the sedative action; an ED50 of 0.5 mg/kg perorally was found for the compound of Example 4.

Another assay deals with carrageenan oedema. Put plainly: antiphlogistic action, carrageenan oedema (modified method of Winter et al.). To be noted: po; peroral; pure λ-carrageenan as 0.25% suspension in physiological saline. The protocol:
Exp. Biol. Med. 111, 544 (1962), with the modification that pure λ-carrageenan as a 0.25% strength suspension in physiological saline solution was used for oedema provocation. The following ED50 values, for example, were determined using this procedure: […]

Assay [1] can be described thus: Randall-Selitto test (analgesic action). To be noted: Rattus norvegicus, po; perorally, rats.
Assay [2] is described as follows: benzoquinone test (analgesic action). To be noted: Mus musculus, po; perorally; mice.

Like-named read-outs stand apart in the source and are kept apart here.

The term ED50 denotes the dose that gives a 50% effect, or the effect in half of the subjects.

For the molecule `CN(C)CCCN1c2ccccc2Sc2ccc(Cl)cc21` [chlorpromazine], in the assay with orientation motility, the ED50 turned out to be 3.05 mg/kg.
In the assay on carrageenan oedema, `Nc1cccc(N2C3=NCCN3C(=O)c3ccccc32)c1` [Example 9, 10-(3-Aminophenyl)-2,3-dihydroimidazo-[2,1-b]-quinoazolin-5(10H)-one] had an ED50 of 3.1 mg/kg.
Turning to `CN1C(=O)CN=C(c2ccccc2)c2cc(Cl)ccc21` [diazepam], the ED50 in the assay with orientation motility worked out at 2.8 mg/kg.
Turning to `O=C1c2ccccc2N(c2cccc([N+](=O)[O-])c2)C2=NCCN12` [Example 4, 10-(3-Nitrophenyl)-2,3-dihydroimidazo-[2,1-b]-quinazolin-5(10H)-one], the 50% effective dose (ED50) came out at 1.3 mg/kg with carrageenan oedema; 0.5 mg/kg in the assay on orientation motility (perorally, mice); 3.4 mg/kg in assay [1]; 3.1 mg/kg in assay [2].
In turn, `O=C1c2ccccc2N(c2cccc(C(F)(F)F)c2)C2=NCCN12` [Example 5, 10-(3-Trifluoromethylphenyl)-2,3-dihydroimidazo-[2,1-b]-quinazolin-5(10H)-one] returned an ED50 in the assay with carrageenan oedema of 25.2 mg/kg.

For the origin of these results see patent US4539402A, “Quinazolinone derivatives” (Troponwerke GmbH & Co., priority 1982, dated 1985).
